Reference: patent US4044134A, “Fused pyrimidin-4(3H)-ones as antiallergy agents” (Pfizer Inc., priority 1976, dated 1977)
Read-outs that look alike come from different tables or passages of the source.

What was measured:
bronchi = conditions: in vivo; cited from earlier work
[1] = system: passive cutaneous anaphylaxis (PCA) reaction; assay: passive cutaneous anaphylaxis (PCA) test, i.v. or oral administration; type: in vivo, male Charles River Wistar rats
Protocol: In the PCA test, normal animals are injected intradermally (i.d.) with antibodies contained in serum obtained from actively sensitized animals. The animals are then challenged intravenously with antigen mixed with a dye such as Evans' Blue. The increased capillary-permeability caused by the antigen-antibody reaction causes the dye to leak from the site of the antibody injection. The test animals are then asphyxiated and the intensity of the reaction determined by measuring the diameter and intensity of the blue coloration on the inner surface of the animals skin. […] The ability of agents to interfere with PCA reactions is measured in male Charles River Wistar rats, 170-210 g. […] Hyperimmune antisera to hen egg albumin is prepared according to Orange, et al., J. Exptl. […] Forty-eight hours prior to antigen challenge the reaginic antisera is injected intradermally (i.d.) into the shaved skin of a normal rat's back; 5 hours before challenge the hyperimmune antisera is similarly injected; 5 hours later, at a third site, 60 mcg. histamine dihydrochloride is injected i.d. as a check for antihistaminic and unspecific types of blockage; the compounds of the instant invention or saline are then administered i.v. and immediately followed by 2.5 mg. Evan's blue dye and 5 mg. egg albumin in saline. In the case of oral administration Evan's blue dye and egg albumen are given five minutes after administration of the drug. Thirty minutes later the animals are asphyxiated using chloroform and the skin of the back removed and reversed for observation. A score is assigned each injection site equal to the product of the diameter of the site in mm. and a grade of 0.1, 0.5, 1, 2, 3 or 4 proportional to intensity of dye coloration. The scores for a given injection site are summed for each group of 8 animals and compared to the saline treated controls. The difference is expressed as percent blockade due to the compound employed. […] Disodium cromoglycate, a commerial antiallergy agent, is included for comparison. [drawing 3]

[2] = intravenous toxicity in mice
[3] = hypotension and bradycardia in dogs; type: in vivo
PCA reaction = PCA reaction test after aerosol administration (nebulizer); type: in vivo, rats
bronchial asthma = conditions: in vivo; cited from earlier work
[4] = Rattus norvegicus, iv, I.V., read-out: degree (%) of protection, PCA test
[5] = Rattus norvegicus, Oral, read-out: degree (%) of protection, PCA test

Which “bronchodilator activity” value (bronchi) does the source give for O=c1[nH]cnc2cc3ccccc3cc12 [Benzo[g]quinazolin-4(3H)-one, reference compound] here?
The value was “active as a bronchodilator”.

And the inhibition in vivo at 3 mg/kg [1, 4]?
Its inhibition in vivo at 3 mg/kg is 31%.

Which results are given for CCOC(=O)c1nc2nc3cc(OC)c(OC)cc3cc2c(=O)[nH]1 [COOC2 H5/H/H/OCH3/OCH3/H, Ethyl 7,8-dimethoxypyrimido[4,5-b]quinolin-4(3H)-one-2-carboxylate]?
inhibition in vivo at 0.003 mg/kg ([1]; Rattus norvegicus, iv, I.V., 0.003 mg/kg, read-out: degree (%) of protection, PCA test): 36%; inhibition in vivo at 0.01 mg/kg ([1]; Rattus norvegicus, iv, I.V., 0.01 mg/kg, read-out: degree (%) of protection, PCA test): 70%; inhibition in vivo at 0.03 mg/kg ([1]; Rattus norvegicus, iv, I.V., 0.03 mg/kg, read-out: degree (%) of protection, PCA test): 75%; inhibition in vivo at 0.1 mg/kg [1, 4]: 90%; inhibition in vivo at 0.3 mg/kg [1, 4]: 90%; inhibition in vivo at 1 mg/kg [1, 4]: 100%; minimal effective dose ([1]; Rattus norvegicus, iv, read-out: intravenously active at a level as low as): 0.003 mg/kg; inhibition in vivo at 0.03 mg/kg ([1]; Rattus norvegicus, Oral, 0.03 mg/kg (so in the source), read-out: degree (%) of protection, PCA test): 30%; inhibition in vivo at 1 mg/kg [1, 5]: 51%; inhibition in vivo at 3 mg/kg [1, 5]: 75%; inhibition in vivo at 10 mg/kg [1, 5]: 80%; routes of administration by which active ([1]; rat, in vivo): active via the oral, intravenous, intraperitoneal and inhalation routes of administration; intravenous dose that did not cause death in mice ([2]; intravenous, mice): 1000 mg/kg; toxicity ([2]; mouse, in vivo): relatively free of toxicity; hypotension and bradycardia [3]: marked but transient hypotension and bradycardia; concentration of solutions giving concentration related responses by aerosol (PCA reaction): 0.3 to 30 mg/mL

For O=C(O)c1cc(=O)c2c(OCC(O)COc3cccc4oc(C(=O)O)cc(=O)c34)cccc2o1 [Disodium chromoglycate, 1,3-bis-(2-carboxychromon-5-yloxy)-2-hydroxypropane, reference compound], which “bronchodilator activity” value (bronchi) is on record?
Its value is “not a bronchodilator”.

And the inhibition in vivo at 0.1 mg/kg [1, 4]?
Its inhibition in vivo at 0.1 mg/kg is 19%.

And the inhibition in vivo at 0.3 mg/kg [1, 4]?
Its inhibition in vivo at 0.3 mg/kg is 29%.

What about the inhibition in vivo at 1 mg/kg [1, 4] of the same compound?
The inhibition in vivo at 1 mg/kg was 56%.

What about the inhibition in vivo at 3 mg/kg [1, 4] of the same compound?
Its inhibition in vivo at 3 mg/kg is 78%.

And the inhibition in vivo at 10 mg/kg [1, 4]?
Its inhibition in vivo at 10 mg/kg is 89%.

And the inhibition in vivo at 30 mg/kg ([1]; Rattus norvegicus, iv, I.V., 30 mg/kg, read-out: degree (%) of protection, PCA test)?
The inhibition in vivo at 30 mg/kg was 99%.

What about the inhibition in vivo at 100 mg/kg [1, 4] of the same compound?
The inhibition in vivo at 100 mg/kg was 100%.

And the inhibition in vivo at 100 mg/kg [1, 5]?
The inhibition in vivo at 100 mg/kg was 0%.

What about the “efficacy by route of administration” value (bronchial asthma) of the same compound?
Its value is “lack of oral efficacy”.

Which “bronchodilator activity” value (bronchi) does the source give for CN[C@@H](C)[C@H](O)c1ccccc1 [ephedrine] here?
The value was “orally efficacious bronchodilator”.

With CNC[C@H](O)c1ccc(O)c(O)c1 [epinephrine] as the compound, how does the “bronchodilator activity” value (bronchi) read?
Its value is “bronchodilator effects”.

With CC(C)NCC(O)c1ccc(O)c(O)c1 (stereo not drawn) [isoproterenol] as the compound, how does the “bronchodilator activity” value (bronchi) read?
Its value is “potent aerosol bronchodilator”.

With CC(C)(C)NCC(O)c1ccc(O)c(CO)c1 (stereo not drawn) [solbutamol] as the compound, how does the “bronchodilator activity” value (bronchi) read?
Its value is “potent bronchodilator of prolonged duration, and active via both oral and aerosol administration”.

With Cn1c(=O)c2[nH]cnc2n(C)c1=O [theophylline] as the compound, how does the “bronchodilator activity” value (bronchi) read?
Its value is “generally less potent than the sympathomimetic amines such as isoproterenol and solbutamol, and are ineffective in aerosol administration”.
